The test system of one assay is gastric acid secretion. The experiment in a line: Inhibitory Effect on Gastric Acid Secretion in Ghosh-Schild Rats. Type of assay: in vivo, rat (male Wistar-KV). The following applies: 180 minutes after administration. As for the experimental part: (a) Inhibitory Effect on Gastric Acid Secretion in Ghosh-Schild Rats Each of male Wistar-KV rats was fasted for 24 hours, and a trachea cannula was set up under urethane anesthesia. The abdomen was incised, a double cannula was set up at the forestomach, and then the abdomen was closed. The gastric acid secretion was stimulated by intravenous infusion of […]. Physiological saline was perfused into the stomach through the double cannula at a rate of 1 ml/min., and the effluent was collected every 10 minutes. The acidity of the effluent was measured, using an automatic titrator, by titrating the effluent with 1/100N sodium hydroxide to pH 7. When the acid secretion had reached a stable plateau, the test drug was intravenously administered, and the gastric acid secretion was measured 3 hours after the test drug administration. The antisecretory effect was expressed as percentages of the secretory amount before administration of the test compound. Inhibition percentages at 180 minutes after the administrations are shown.

Assay [1] has as its system gastric lesion induced by ethanol. The experiment in a line: Inhibitory Effect on Formation of Gastric Lesion Induced by Ethanol. Type of assay: in vivo, rat (male Wistar). Conditions: P.O., 30 minutes before 1 ml of 99.5% ethanol orally, lesions 1 hour after ethanol. As for the experimental part:
(b) Inhibitory Effect on Formation of Gastric Lesion Induced by Ethanol
Male Wistar rats weighing 170 to 270 g were used. Each of the rats was placed in separate cages to deprive of food but allowed free access to water for 4 hours. Test drugs or the control drug were orally administered respectively in amounts of 3, 10 and 30 mg/kg, and 30 minutes thereafter 1 ml of 99.5% ethanol were orally administered respectively. One hour after the ethanol administration the rats were sacrificed by cervical vertebrae dislocation, and the stomachs were removed with 8 ml of 1% formalin and put into 1% formalin for 30 minutes to fix the gastric wall. After the fixing, each stomach was opened along the greater curvature, and then after the mucosal surface was washed with tap water, the total length lesions generated at the glandub portion was determined as an ulcer index.
The antiulcer effect by the test drug was expressed by the ED50 value (the dose of the test compound to inhibit the ulcer by 50% to the ulcer index of the non-treated group). Only the solvent was administered to the non-treated group.

Structures are written as SMILES. Structures can show the parent of a compound that is named as a salt.

In the case of `COc1ccc2[nH]c([S+]([O-])C3CCCCc4c(OC)ccnc43)nc2c1` (centres unmarked) [Example 63, 9-(5-Methoxybenzimidazole-2-yl)sulfinyl-4-methoxy-2,3-cycloheptenopyridine], in the assay on gastric acid secretion, the “Inhibiting action of gastric acid secretion (rat i.v.), 1 mg/kg” value (shortened to “Inhibiting action … 1 mg/kg”) came to 45.7% and the “Inhibiting action of gastric acid secretion (rat i.v.), 3 mg/kg” value (from here on “Inhibiting action … 3 mg/kg”) is reported as 73.8%.

As for `COc1ccnc2c1CCCCC2[S+]([O-])c1nc2ccccc2[nH]1` (centres unmarked) [Example 68, 9-(Benzimidazole-2-yl)sulfinyl-4-methoxy-2,3-cycloheptenopyridine sodium salt], the “ED50 value (dose of the test compound to inhibit the ulcer by 50% to the ulcer index of the non-treated group)” value in assay [1] (rat, sodium salt) turned out to be 10.9 mg/kg. Besides, in the assay on gastric acid secretion (sodium salt), the “Inhibiting action … 1 mg/kg” value is given as 54.9%.

`Cc1ccc2[nH]c([S+]([O-])C3CCCCc4cccnc43)nc2c1` (centres unmarked) [Example 75, 9-(5-Methylbenzimidazole-2-yl)sulfinyl-2,3-cycloheptenopyridine]: the “Inhibiting action … 3 mg/kg” value in the assay on gastric acid secretion was 42.1%.

With `COc1ccnc2c1CCCCC2[S+]([O-])c1nc2ccccc2[nH]1` (centres unmarked) [Example 77, 9-(Benzimidazole-2-yl)sulfinyl-4-methoxy-2,3-cycloheptenopyridine], the ED50 (usually the dose at which the effect has come halfway, by size or by number of responders) in assay [1] (Rattus norvegicus, po, read-out: ED50 value (dose of the test compound to inhibit the ulcer by 50% to the ulcer index of the non-treated group)) was 13 mg/kg. Besides, in the assay with gastric acid secretion, the “Inhibiting action … 1 mg/kg” value was 44.7% and the “Inhibiting action … 3 mg/kg” value was 74.7%.

On to `COc1ccnc2c1CCCCC2[S+]([O-])c1nc2cc(F)ccc2[nH]1` (centres unmarked) [Example 78, 9-(5-Fluorobenzimidazole-2-yl)sulfinyl-4-methoxy-2,3-cycloheptenopyridine], for which, in the assay with gastric acid secretion, the “Inhibiting action … 1 mg/kg” value amounted to 65.4% and the “Inhibiting action … 3 mg/kg” value came out at 82.9%.

Turning to `COCCOc1ccnc2c1CCCCC2[S+]([O-])c1nc2ccccc2[nH]1` (centres unmarked) [Example 96, 9-(Benzimidazole-2-yl)sulfinyl-4-(2-methoxyethoxy)-2,3-cycloheptenopyridine], in the assay on gastric acid secretion, the “Inhibiting action … 1 mg/kg” value was 38.6% and the “Inhibiting action … 3 mg/kg” value worked out at 57.4%.

As to `COc1c(C)cnc2c1CCCCC2[S+]([O-])c1nc2ccccc2[nH]1` (centres unmarked) [Example 109, 9-(Benzimidazole-2-yl)sulfinyl-4-methoxy-3-methyl-2,3-cycloheptenopyridine], in the assay on gastric acid secretion, the “Inhibiting action … 3 mg/kg” value is reported as 77.6%.

For `COc1ccc2[nH]c([S+]([O-])Cc3ncc(C)c(OC)c3C)nc2c1` (centres unmarked) [Omeprazole, reference compound], in the assay with gastric acid secretion, the “Inhibiting action … 1 mg/kg” value worked out at 36.9%.

The record behind these values is US5149702A, “Cycloheptenopyridine derivatives, process for preparation thereof and antiulcer agents containing the same” (Toa Eiyo Ltd., priority 1990, dated 1992).
